The values below come from patent US7816328B2, “Substituted fused heterocyclic C-glycosides” (Janssen Pharmaceutica NV, priority 2003, dated 2010).

In general, IC50 refers to the midpoint of a concentration-inhibition curve.

The target of assay [1] is T1, human SGLT1 (Homo sapiens, UniProt P13866).
T1 construct: expressed in transfected cells; host or cells: CHO-K1
T1 sequence (P13866 1-664): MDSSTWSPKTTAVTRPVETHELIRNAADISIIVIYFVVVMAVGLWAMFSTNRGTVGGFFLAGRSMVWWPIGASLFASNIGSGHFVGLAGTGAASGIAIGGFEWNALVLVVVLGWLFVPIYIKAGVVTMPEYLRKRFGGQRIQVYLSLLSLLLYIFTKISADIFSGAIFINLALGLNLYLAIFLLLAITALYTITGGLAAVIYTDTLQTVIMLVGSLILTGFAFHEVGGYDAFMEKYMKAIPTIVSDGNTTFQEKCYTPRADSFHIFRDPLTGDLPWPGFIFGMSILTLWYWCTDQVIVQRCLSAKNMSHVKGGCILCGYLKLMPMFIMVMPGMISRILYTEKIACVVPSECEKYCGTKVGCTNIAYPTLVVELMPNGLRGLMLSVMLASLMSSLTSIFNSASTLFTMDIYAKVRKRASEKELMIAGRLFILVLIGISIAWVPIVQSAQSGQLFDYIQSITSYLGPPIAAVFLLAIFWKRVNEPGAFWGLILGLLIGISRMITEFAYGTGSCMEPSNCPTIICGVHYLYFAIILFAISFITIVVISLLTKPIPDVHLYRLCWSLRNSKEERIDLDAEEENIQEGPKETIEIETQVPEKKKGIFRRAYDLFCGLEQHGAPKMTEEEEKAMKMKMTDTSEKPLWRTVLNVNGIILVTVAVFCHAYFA
The experiment in a line: Cell-based assay for sodium-dependent glucose transport (14C-AMG uptake), CHO-K1 cells stably expressing human SGLT1. The note with it: Na-dependent 14C-AMG uptake. How it is done:
(§1) Cloning of the human SGLT1 and human SGLT2 cDNAs and construction of the mammalian expression vector: The human SGLT1 cDNA (Genbank M24847) was cloned from human small intestine. Human SGLT2 cDNA (Genbank M95549) was cloned from human kidney. Both full cDNAs were subcloned into pcDNA and sequenced to verify the integrity of the construct.
(§2) Generation of CHO-K1 cells stably expressing human SGLT1 or human SGLT2: Transfection of CHO-K1 cells was performed using DMRIE-C reagent (Life Technologies, Gaithersburg, Md.). Transfectants were then selected in the presence of the antibiotic G418 (Gibco-BRL, Grand Island, N.Y.) at 400 μg/ml. Individual clones were then characterized using the functional assay described below.
(§3) Cell-based assay for sodium-dependent glucose transport: Cell lines stably expressing human SGLT1 or SGLT2 were then used for functional analysis of Na+-dependent glucose uptake. Briefly, cells were plated at a density of 65,000 cells per well in a 96-well plate and allowed to grow for 48 hours. Cells were subsequently washed one time with Assay Buffer (50 mM HEPES pH 7.4, 20 mM Tris, 5 mM KCl, 1 mM MgCl2, 1 mM CaCl2 and 137 mM NaCl) and treated with compound in the absence or presence of NaCl for 15 minutes. Cells were then labeled with ^14C-α-methylglucopyranoside (AMG, Sigma, St. Louis, Mo.) a non-metabolizable glucose analog specific for sodium-dependent glucose transporters as previously described (Peng, H. and Lever J. E. Post-transcriptional regulation of Na^+/glucose cotransporter (SGLT1) gene expression in LLC-PK1 cells. J Biol Chem 1995; 270:20536-20542). After 2 hours the labelled cells were washed three times with ice-cold PBS. After aspiration, cells were solubilized using Microscint 20 (Packard, Meriden, Conn.) and Na-dependent ^14C-AMG uptake was quantified by measuring radioactivity.
(§4) Plates were counted in a TopCount (Packard, Meriden, Conn.). Results are reported as the % inhibition or IC50 value from a representative experiment. Variability for the functional assay was typically within 20%.

The target in assay [2] is T2, human SGLT2 (Homo sapiens, UniProt P31639).
T2 construct: expressed in transfected cells; host or cells: CHO-K1
T2 sequence (P31639 1-672): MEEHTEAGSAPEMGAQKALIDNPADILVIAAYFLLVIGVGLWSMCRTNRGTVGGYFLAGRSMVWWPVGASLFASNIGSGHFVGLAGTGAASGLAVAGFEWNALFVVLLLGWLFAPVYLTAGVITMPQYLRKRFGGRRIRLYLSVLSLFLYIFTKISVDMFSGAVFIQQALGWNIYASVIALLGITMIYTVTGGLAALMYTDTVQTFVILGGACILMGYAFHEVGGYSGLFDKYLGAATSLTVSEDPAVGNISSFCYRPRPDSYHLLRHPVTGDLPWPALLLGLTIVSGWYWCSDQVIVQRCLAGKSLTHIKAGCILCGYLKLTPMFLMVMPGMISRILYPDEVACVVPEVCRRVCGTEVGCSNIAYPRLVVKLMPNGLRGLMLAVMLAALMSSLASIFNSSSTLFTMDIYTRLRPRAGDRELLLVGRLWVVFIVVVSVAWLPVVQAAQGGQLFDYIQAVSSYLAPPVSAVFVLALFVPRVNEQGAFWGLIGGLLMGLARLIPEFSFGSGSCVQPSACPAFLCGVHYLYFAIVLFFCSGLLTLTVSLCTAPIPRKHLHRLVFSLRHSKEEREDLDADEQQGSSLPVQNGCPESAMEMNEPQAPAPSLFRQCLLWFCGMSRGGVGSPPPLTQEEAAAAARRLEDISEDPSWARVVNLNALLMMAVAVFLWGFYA
Kind of assay: Cell-based assay for sodium-dependent glucose transport (14C-AMG uptake), CHO-K1 cells stably expressing human SGLT2. The note with it: Na-dependent 14C-AMG uptake; for inhibition at 10 µM: read-out: CHOK-SGLT2 % Inh at 10 uM; for IC50: read-out: CHOK-SGLT2 IC50. Here is the method: as §1, §2, §3, §4

On to `COc1ccc(CCc2c[nH]c3ccc([C@@H]4O[C@H](CO)[C@@H](O)[C@H](O)[C@H]4O)cc23)cc1` [Example 3, 5-(β-D-Glucopyranosyl)-3-[2-(4-methoxyphenyl)-ethyl]-1H-indole], for which, in assay [1], the “CHOK-SGLT1 IC50 (uM)” value is “inactive”. The inhibition at 10 µM in assay [2] worked out at 60%.

As for `COc1ccc(Cc2c[nH]c3ccc([C@@H]4O[C@H](CO)[C@@H](O)[C@H](O)[C@H]4O)cc23)cc1` [Example 2, 5-(β-D-Glucopyranosyl)-3-(4-methoxybenzyl)-1H-indole], the “CHOK-SGLT1 IC50 (uM)” value in assay [1] is “inactive”. Moreover, in assay [2], the IC50 was 1390 ± 67 nM.

Turning to `CCc1ccc(Cc2c[nH]c3ccc([C@@H]4O[C@H](CO)[C@@H](O)[C@H](O)[C@H]4O)cc23)cc1` [Example 1, 3-(4-Ethylbenzyl)-5-(β-D-glucopyranosyl)-1H-indole], the “CHOK-SGLT1 IC50 (uM)” value in assay [1] was “inactive”. The half-maximal inhibitory concentration (IC50) in assay [2] was determined as 132 ± 24 nM.

Consider `CCc1ccc(Cc2c[nH]c3cccc([C@@H]4O[C@H](CO)[C@@H](O)[C@H](O)[C@H]4O)c23)cc1` [Example 4, 3-(4-Ethylbenzyl)-4-(β-D-glucopyranosyl)-1H-indole], for which the “CHOK-SGLT1 IC50 (uM)” value in assay [1] was “inactive”. Also, the inhibition at 10 µM in assay [2] amounted to 12%.
